Results reported in US20230116399A1, “Tumor Homing Statin Derivatives” (Da Zen Theranostics, Inc., priority 2019, published 2023).
One block for each compound: values may come before it.

Assays:
[1] = tested on: RhoA/B in H-1975 human lung cancer tumors; assay: RhoA/B membrane staining of tumor tissue, H-1975 mouse model; type: in vivo, mice; conditions: 20 mg/kg
Protocol: RhoA/RhoB membrane staining of tumor tissue of a H-1975 human lung cancer cell mouse model is performed as described below, and the tumor-bearing mice are treated with a THSD (here an ALSD of formula FIId, “DZ2a”, compound 7) in comparison to the corresponding unconjugated dye (“DZ1”) and to Gefinitib (an EGFR inhibitor drug used for treatment of certain breast, lung and other cancers).
H-1975 cells, a cell model for human lung cancer that is resistant to Gefitinib (an EGFR inhibitor drug used for treatment of certain breast, lung and other cancers) are cultured as described above and injected subcutaneously into mice to develop tumors. The mice and the tumors that are formed are systemically exposed to an ALSD (here of formula FIId, “DZ2a”, compound 7) by intravenous injection. The tumor-bearing mice are treated with either Gefitinib (20 mg/kg), or with an ALSD (here of formula FIId, “DZ2a”, compound 7, 5 mg/kg), an unconjugated dye of formula III (“DZ1”, 5 mg/kg) or a combination of the ALSD with Gefitinib.
For immunostaining of tumor tissue, the animals are sacrificed by prescribed and approved euthanasia techniques. Tumor tissue (maximum thickness 3 mm) is sliced, formalin fixated, embedded into paraffin blocks which are sectioned and processed into paraffin section slides. […]

[2] = tested on: 22Rv1 human prostate carcinoma tumors; assay: Tumor volume of 22Rv1 tumors grown subcutaneously in mice; type: in vivo; conditions: 8 mg/kg, intravenously injected
Protocol: Example 1D: 22Rv1 human prostate carcinoma cells are cultured as described above, separated from the medium, resuspended in 50% phosphate buffered saline (PBS) and 50% BD Matrigel™ (BD Biosciences, CA), and then the re-suspended cells are injected and grown subcutaneously in mice. […] The decrease of the THSD in the tumors at 2 and 4 weeks, respectively, as determined by NIR signal, is less than about 30%.
Example 1E: 22Rv1 human prostate carcinoma cells are cultured, injected and grown subcutaneously in mice as described above in example 1D. Tumor volume is monitored by measuring the size by caliper and calculating volume as described in example 9 below. The mice are intravenously injected with the following: ALSD of formula FIId, “DZ2a”, compound 7, the corresponding unconjugated dye (here: DZ1), unconjugated Simvastatin, a statin drug (SIM), and docetaxel (DOC), a cancer drug, and a mixture of the ALSD with DOC. Each active was administered in an amount of 5 mg/kg for the ALSD, DZ1, and SIM, except, in case of DOC, 8 mg/kg. A slower rate of increased tumor volume indicates tumor suppressive activity.

[3] = tested on: L858R/T790M vs wild-type EGFR; conditions: inhibiting phosphorylation of EGFR; cited from earlier work
H1650 (LC) = assay: MTT cell viability, H1650; type: cell-based, human; conditions: Homo sapiens, NCI-H1650, 48 h / 24 hours, relative IC50
Protocol: (§1) Cell culture: In the following examples, unless otherwise specified, all cell lines are purchased from American Type Culture Collection and cultured in American Type Culture Collection (ATCC)-recommended media, with fetal bovine serum (FBS) to a final concentration of 10% and 1×penicillin/streptomycin at 37° C. with 5% CO2 in a cell culture incubator, unless otherwise specified. Unless otherwise specified, culture is 2D. Where culture is 3D, low attachment plates are used, with the same media. C4-2B (parental cell line and drug-resistant cells derived therefrom) are cultured in RPMI-1640 with 10% FBS. MDVR cells (an Enzalutamide-resistant variety of C4-2B prostate cancer cells formed as described in Example 4 below) are cultured as indicated for the parental C4-2B cells. 22RV1 Prostate Cancer (PC) cells (ATCC® CRL-2505™, a human prostate carcinoma cell line of epithelial morphology) are cultured in RPMI-1640 with 10% FBS. A549 cells (ATCC® CCL-185™, a human lung carcinoma cell line of epithelial morphology) are cultured in F-12K medium with 10% FBS. A549/DDP cells (Cells were described in DOI: 10.3892/mmr.2014.2163 and in doi: 10.7150/jca.19426; cisplatin resistant cells may be established from exposing parental A549 cells to cisplatin for an extended time). MDR A549/cisplatin lung adenocarcinoma cell line, drug resistant) are cultured in F-12K medium with 10% FBS. H1975 cells (ATCC® CRL-5908™, a human adenocarcinoma non-small cell lung cancer cell line of epithelial morphology) are cultured in RPMI-1640 medium with 10% FBS; H1975 cells are a cell model for human lung cancer that is resistant to Gefitinib (an EGFR inhibitor drug used for treatment of certain breast, lung and other cancers). H1650 cells (ATCC® CRL-5883™, a adenocarcinoma/bronchoalveolar carcinoma lung cancer cell line of epithelial morphology) are cultured in RPMI-1640 medium with 10% FBS. […]

[4] = Stability of conjugates in mouse blood serum at 37° C. for 3 hours (LC-MS/MS); type: in vitro ADME; conditions: for amount of conjugate at 3 h (value at time 0 is 100) / degradation/release of the statin from the conjugate: mouse blood serum, 37° C., 3 h; for stability when exposed to serum: serum at body temperature for at least 3 hours
Protocol: Comparative example 1A-V: Synthesis of DZ1-SIM rapid release ester (RRE) and comparison of stability to an ELSD (here: DZ1-SIM). A rapid release ester (RRE) is synthesized as described below, linking DZ1 to Simvastatin (DZ1-SIM RRE or “DZ2c”, compound 8) and is tested in comparison to the ELSD (here: DZ1-SIM or “DZ2b”, compound 14, synthesized as described above). Both compounds are incubated in mouse blood serum at 37° C. for 3 hours, after which samples are taken and tested for degradation of the conjugates by testing for the unconjugated statin as described in example 6 herein-below (LC-MS/MS-025 with positive ion, ESI, MRM detection and HPLC). […] The value at time 0 for each of the samples is 100.

PC3 (PC) = assay: MTT cell viability, PC3; type: cell-based; conditions: Homo sapiens, 48 h / 24 hours, relative IC50
Protocol: as §1, with “FBS.” for “FBS. H1975 cells (ATCC® CRL-5908™, a human adenocarcinoma non-small cell lung cancer cell line of epithelial morphology) are cultured in RPMI-1640 medium with 10% FBS; H1975 cells are a cell model for human lung cancer that is resistant to Gefitinib (an EGFR inhibitor drug used for treatment of certain breast, lung and other cancers). H1650 cells (ATCC® CRL-5883™, a adenocarcinoma/bronchoalveolar carcinoma lung cancer cell line of epithelial morphology) are cultured in RPMI-1640 medium with 10% FBS.”

human cancer cell lines = assay: MTT cell viability, summary over the cancer cell lines; type: cell-based; conditions: summary of the table of IC50, read-out: range of IC50 over the cancer cell lines
Protocol: Example 7: The experiment is performed by cell assay essentially as described above in example 4. […]
The cell lines are cultured according to the protocols as described above, then each of the cell lines are treated for 48 h either with an ELSD (here of formula FId, “DZ2b” or compound 14) or with an ALSD (here of formula FIId, “DZ2a” or compound 7). For each cell line, the IC50 is determined for each drug, i.e. the ELSD, the ALSD, and for the corresponding unconjugated statin (Simvastatin), in concentrations from 0.1-100 μM.
In the controls (not shown in the figures), the cells are exposed to DMSO (vehicle) for a final concentration that equals the highest concentration of the drug tested, to a maximum concentration less than 0.1% v/v. […] The absorbance density of the supernatant is read on a 96-well microplate reader at wavelength 595 nm.

EZ-resistant C4-2B (PC) = assay: MTT cell viability, EZ-resistant C4-2B (MDVR); type: cell-based; conditions: Homo sapiens, 48 h / 24 hours, relative IC50
Protocol: as §1, with “FBS.” for “FBS. H1975 cells (ATCC® CRL-5908™, a human adenocarcinoma non-small cell lung cancer cell line of epithelial morphology) are cultured in RPMI-1640 medium with 10% FBS; H1975 cells are a cell model for human lung cancer that is resistant to Gefitinib (an EGFR inhibitor drug used for treatment of certain breast, lung and other cancers). H1650 cells (ATCC® CRL-5883™, a adenocarcinoma/bronchoalveolar carcinoma lung cancer cell line of epithelial morphology) are cultured in RPMI-1640 medium with 10% FBS.”

H446 (LC) = assay: MTT cell viability, H446; type: cell-based, human; conditions: Homo sapiens, NCI-H446, 48 h / 24 hours, relative IC50
Protocol: as §1

PC9 (LC) = assay: MTT cell viability, PC9; type: cell-based, human; conditions: Homo sapiens, 48 h / 24 hours, relative IC50
Protocol: as §1

A549DDP (LC) = assay: MTT cell viability, A549DDP; type: cell-based, human; conditions: Homo sapiens, A549/DDP, 48 h / 24 hours, relative IC50
Protocol: as §1
(§2) […] For each cell line, the IC50 is determined for each drug, i.e. the ELSD, the ALSD, and for the corresponding unconjugated statin (Simvastatin), in concentrations from 0.1-100 μM. […]

H1975 (LC) = assay: MTT cell viability, H1975; type: cell-based, human; conditions: Homo sapiens, NCI-H1975, 48 h / 24 hours, relative IC50
Protocol: as §1

A549 (LC) = assay: MTT cell viability, A549; type: cell-based, human; conditions: Homo sapiens, 48 h / 24 hours, relative IC50
Protocol: as §1

22RV1 (PC) = assay: MTT cell viability, 22RV1; type: cell-based, human
Protocol: as §1, §2

Structure (SMILES): COc1cc2ncnc(Nc3ccc(F)c(Cl)c3)c2cc1OCCCN1CCOCC1 [Gefitinib]
RhoA/B staining of tumor cell membranes [1]: staining persists in the membranes

Structure (SMILES): CC(=O)O[C@@]12CO[C@@H]1C[C@H](O)[C@@]1(C)C(=O)[C@H](O)C3=C(C)[C@@H](OC(=O)[C@H](O)[C@@H](NC(=O)OC(C)(C)C)c4ccccc4)C[C@@](O)([C@@H](OC(=O)c4ccccc4)[C@H]21)C3(C)C [Docetaxel]
tumor suppressive activity (tumor volume increase) [2]: no or very mild tumor suppressive activity | tumor suppressive activity (tumor volume increase) ([2]; listed as DOC): no significant tumor suppressive activity

Structure (SMILES): C=CC(=O)Nc1cc(Nc2nccc(-c3cn(C)c4ccccc34)n2)c(OC)cc1N(C)CCN(C)C [AZD9291, Osimertinib]
greater potency against L858R/T790M than wild-type EGFR [3]: 100-200 times

IC50 (H1650 (LC)): 11.8 µM | amount of conjugate at 3 h (value at time 0 is 100) [4]: 100 | degradation/release of the statin from the conjugate [4]: no degradation/release | stability when exposed to serum [4]: stable and not subject to degradation | IC50 (PC3 (PC)): 6 µM | IC50 (human cancer cell lines): 2 to 12 µM | IC50 (H446 (LC)): 3.4 µM | IC50 (PC9 (LC)): 5.6 µM | IC50 (A549DDP (LC)): 2.1 µM | IC50 (H1975 (LC)): 6.4 µM | IC50 (A549 (LC)): 5.4 µM | IC50 (22RV1 (PC); 22RV1, treated for 48 h /, relative IC50, listed as ELSD): 7.8 µM | IC50 (22RV1 (PC); Homo sapiens, 22Rv1, 22RV1, treated for 48 h /, relative IC50): 10.8 µM
Structure (SMILES): CCC(C)(C)C(=O)O[C@H]1C[C@@H](C)C=C2C=C[C@H](C)[C@H](CC[C@@H](O)C[C@@H](O)CC(=O)OCCNC(=O)CCCCCN3/C(=C/C=C4\CCCC(/C=C/C5=[N+](CCCCS(=O)(=O)O)c6ccccc6C5(C)C)=C4Cl)C(C)(C)c4ccccc43)[C@H]21 [DZ2b]
IC50 (EZ-resistant C4-2B (PC)): 3.8 µM

amount of conjugate at 3 h (value at time 0 is 100) [4]: 10 | degradation/release of the statin from the conjugate [4]: 90% | stability when exposed to serum [4]: less stable and more easily degrades
Structure (SMILES): CCC(C)(C)C(=O)O[C@H]1C[C@@H](C)C=C2C=C[C@H](C)[C@H](CC[C@@H]3C[C@@H](OC(=O)CCCCCN4/C(=C/C=C5\CCCC(/C=C/C6=[N+](CCCCS(=O)(=O)[O-])c7ccccc7C6(C)C)=C5Cl)C(C)(C)c5ccccc54)CC(=O)O3)[C@H]21 [DZ2c]
